Data on six molecules can be found in US7056900B2, “Disaccharide derivatives for treating hyperglycaemia” (Sudzucker Aktiengesellschaft Mannheim Ochsenfurt, priority 1997, dated 2006).

Holding throughout (format): biochemical, hog
Test [1] concerns glucoamylase/maltase (GM). Kind of test: Cleavage on incubation (24 hours) with GM. As to conditions: 37° C. On the procedure: (§1) Sucrase/isomaltase (SI) and glucoamylase/maltase (GM) were isolated by papain digestion from hog small intestine mucosa and enriched by ammoniumsulfate precipitation. […] D) A study was first made as to what extent the inventive disaccharide derivatives and comparison substances, that is to say sucrose and maltose, were cleaved by SI or by GM during incubation for 24 hours. [table]

Test [2] relates to glucoamylase/maltase (GM). Kind of test: Inhibition of GM-catalyzed hydrolysis of maltose (GM/maltose), coupled HK/G6PDH optical test. As to conditions: for KM/Ki / inhibitor strength (in words) / Ki: GM/maltose; for Ki: secondary Lineweaver-Burk plots. On the procedure:
(§2) The maltase activity was studied using the substrate maltose. Sucrase/isomaltase (SI) and glucoamylase/maltase (GM) were isolated by papain digestion from hog small intestine mucosa and enriched by ammoniumsulfate precipitation. […] B) In the methods described hereinafter for determining the enzyme activity of sucrase/isomaltase and glucoamylase/maltase under the influence of the substances tested, the amount of glucose or fructose released was determined as measured parameter. This took place in an enzymatic optical test using hexokinase (HK) and glucose-6-phosphate dehydrogenase (G6PDH) as a coupled detection system (Beutler, H.-O.; in: Methods of Enzymatic Analysis; Bergmeyer, H. U.; Bergmeyer, […] edition; Vol. […] The measurement was made at 37° C. and a pH of 7.0. The table below reports the composition of the assays necessary for the individual tests. In individual tests, the semimicro assay was used, but this was reduced in some cases to a micro assay. […] C) Before the inhibitor strengths were determined, for each enzyme-substrate combination basic kinetics were established in which not only the Michaelis-Menten constant (KM [mmol/l]) but also the maximum velocity (Vmax [μmol/mLmin]) were determined. […] The level of the inhibitor concentrations used depended on the strength of the resulting inhibition. For each of the enzyme-substrate combinations, 3 to 4 sets of kinetics at different inhibitor concentrations were established. The inhibitor constants Ki and Kii were, unless stated otherwise, determined from secondary Lineweaver-Burk plots.

Test [3] concerns the target T1, sucrase/isomaltase (SI) (Sus scrofa, UniProt P56729). Kind of test: Cleavage on incubation (24 hours) with SI. As to conditions: 37° C. Here is the method: as §1
Test [4] deals with T1, sucrase/isomaltase (SI). Kind of test: Inhibition of SI-catalyzed hydrolysis of isomaltose (SI/isomaltose), coupled HK/G6PDH optical test. Also noted: isolated by papain digestion from hog small intestine mucosa and enriched by ammoniumsulfate precipitation; from tissue; host or cells: hog small intestine mucosa; key to Type (of inhibition): K means competitive inhibition; NK means noncompetitive inhibition; UK means uncompetitive inhibition. The following applies: for KM/Ki / Type (of inhibition) / inhibitor strength (in words) / Ki: SI/isomaltose; for Ki: secondary Lineweaver-Burk plots. From the text:
(§3) A) The activity of the SI enzyme complex was studied using three different substrates, that is to say sucrose, maltose and isomaltose.
The isomaltase activity was studied using the substrate isomaltose.
(§4) Sucrase/isomaltase (SI) and glucoamylase/maltase (GM) were isolated by papain digestion from hog small intestine mucosa and enriched by ammoniumsulfate precipitation. The enzymes were separated into isolated sucrase/isomaltase (SI) and glucoamylase/maltase (GM) via an ion exchanger (DEAE cellulose), and a following fine fractionation using gel filtration on a Superdex 200 column from Pharmacia.
(§5) B) In the methods described hereinafter for determining the enzyme activity of sucrase/isomaltase and glucoamylase/maltase under the influence of the substances tested, the amount of glucose or fructose released was determined as measured parameter. This took place in an enzymatic optical test using hexokinase (HK) and glucose-6-phosphate dehydrogenase (G6PDH) as a coupled detection system (Beutler, H.-O.; in: Methods of Enzymatic Analysis; Bergmeyer, H. U.; Bergmeyer, J.; Graβl, M. (editors); 3rd edition; Vol. VI, 2–10). The measurement was made at 37° C. and a pH of 7.0.
(§6) The table below reports the composition of the assays necessary for the individual tests. In individual tests, the semimicro assay was used, but this was reduced in some cases to a micro assay.
(§7) C) Before the inhibitor strengths were determined, for each enzyme-substrate combination basic kinetics were established in which not only the Michaelis-Menten constant (KM [mmol/l]) but also the maximum velocity (Vmax [μmol/mLmin]) were determined. For the enzyme/substrate combination SI/sucrose, a substrate concentration of from 1.24 to 124 mmol/L was used, for the enzyme/substrate combination SI/maltose a substrate concentration of from 0.62 to 24.8 mmol/L was used, for the enzyme/substrate combination SI/isomaltose a substrate concentration of from 3.6 to 57.6 mmol/L was used and for the enzyme/substrate combination GM/maltose a substrate concentration of from 0.31 to 12.4 mmol/L was used in the assay.
(§8) The level of the inhibitor concentrations used depended on the strength of the resulting inhibition. For each of the enzyme-substrate combinations, 3 to 4 sets of kinetics at different inhibitor concentrations were established. The inhibitor constants Ki and Kii were, unless stated otherwise, determined from secondary Lineweaver-Burk plots.

In test [5] the target is T1, sucrase/isomaltase (SI). Kind of test: Inhibition of SI-catalyzed hydrolysis of sucrose (SI/sucrose), coupled HK/G6PDH optical test.
Source text: as §3, §4, §5, §6, §7, §8

In test [6] the target is T1, sucrase/isomaltase (SI). Kind of test: Inhibition of SI-catalyzed hydrolysis of maltose (SI/maltose), coupled HK/G6PDH optical test.
Source text: as §2, with “A) The activity of the SI enzyme complex was studied using three different substrates, that is to say sucrose, maltose and isomaltose. The maltase” for “The maltase”

[7] abbreviates: cleavage product detected: glucose.
Setting [8] is: cleavage product detected: fructose.
Setting [9] is: SI/sucrose, secondary Lineweaver-Burk plots, read-out: Ki.
[10] abbreviates: SI/sucrose, secondary Lineweaver-Burk plots, read-out: Kii.
[11] abbreviates: SI/maltose, secondary Lineweaver-Burk plots, read-out: Ki.
Where [12] appears, read: SI/maltose, secondary Lineweaver-Burk plots, read-out: Kii.

For orientation: Km means the substrate concentration at which the rate is half of its maximum.

Entries after “also recorded” stand apart in the source; their conditions may differ. Like-named read-outs stand apart in the source and are kept apart here.

T1 sequence (P56729 with tags, fused parts or gaps): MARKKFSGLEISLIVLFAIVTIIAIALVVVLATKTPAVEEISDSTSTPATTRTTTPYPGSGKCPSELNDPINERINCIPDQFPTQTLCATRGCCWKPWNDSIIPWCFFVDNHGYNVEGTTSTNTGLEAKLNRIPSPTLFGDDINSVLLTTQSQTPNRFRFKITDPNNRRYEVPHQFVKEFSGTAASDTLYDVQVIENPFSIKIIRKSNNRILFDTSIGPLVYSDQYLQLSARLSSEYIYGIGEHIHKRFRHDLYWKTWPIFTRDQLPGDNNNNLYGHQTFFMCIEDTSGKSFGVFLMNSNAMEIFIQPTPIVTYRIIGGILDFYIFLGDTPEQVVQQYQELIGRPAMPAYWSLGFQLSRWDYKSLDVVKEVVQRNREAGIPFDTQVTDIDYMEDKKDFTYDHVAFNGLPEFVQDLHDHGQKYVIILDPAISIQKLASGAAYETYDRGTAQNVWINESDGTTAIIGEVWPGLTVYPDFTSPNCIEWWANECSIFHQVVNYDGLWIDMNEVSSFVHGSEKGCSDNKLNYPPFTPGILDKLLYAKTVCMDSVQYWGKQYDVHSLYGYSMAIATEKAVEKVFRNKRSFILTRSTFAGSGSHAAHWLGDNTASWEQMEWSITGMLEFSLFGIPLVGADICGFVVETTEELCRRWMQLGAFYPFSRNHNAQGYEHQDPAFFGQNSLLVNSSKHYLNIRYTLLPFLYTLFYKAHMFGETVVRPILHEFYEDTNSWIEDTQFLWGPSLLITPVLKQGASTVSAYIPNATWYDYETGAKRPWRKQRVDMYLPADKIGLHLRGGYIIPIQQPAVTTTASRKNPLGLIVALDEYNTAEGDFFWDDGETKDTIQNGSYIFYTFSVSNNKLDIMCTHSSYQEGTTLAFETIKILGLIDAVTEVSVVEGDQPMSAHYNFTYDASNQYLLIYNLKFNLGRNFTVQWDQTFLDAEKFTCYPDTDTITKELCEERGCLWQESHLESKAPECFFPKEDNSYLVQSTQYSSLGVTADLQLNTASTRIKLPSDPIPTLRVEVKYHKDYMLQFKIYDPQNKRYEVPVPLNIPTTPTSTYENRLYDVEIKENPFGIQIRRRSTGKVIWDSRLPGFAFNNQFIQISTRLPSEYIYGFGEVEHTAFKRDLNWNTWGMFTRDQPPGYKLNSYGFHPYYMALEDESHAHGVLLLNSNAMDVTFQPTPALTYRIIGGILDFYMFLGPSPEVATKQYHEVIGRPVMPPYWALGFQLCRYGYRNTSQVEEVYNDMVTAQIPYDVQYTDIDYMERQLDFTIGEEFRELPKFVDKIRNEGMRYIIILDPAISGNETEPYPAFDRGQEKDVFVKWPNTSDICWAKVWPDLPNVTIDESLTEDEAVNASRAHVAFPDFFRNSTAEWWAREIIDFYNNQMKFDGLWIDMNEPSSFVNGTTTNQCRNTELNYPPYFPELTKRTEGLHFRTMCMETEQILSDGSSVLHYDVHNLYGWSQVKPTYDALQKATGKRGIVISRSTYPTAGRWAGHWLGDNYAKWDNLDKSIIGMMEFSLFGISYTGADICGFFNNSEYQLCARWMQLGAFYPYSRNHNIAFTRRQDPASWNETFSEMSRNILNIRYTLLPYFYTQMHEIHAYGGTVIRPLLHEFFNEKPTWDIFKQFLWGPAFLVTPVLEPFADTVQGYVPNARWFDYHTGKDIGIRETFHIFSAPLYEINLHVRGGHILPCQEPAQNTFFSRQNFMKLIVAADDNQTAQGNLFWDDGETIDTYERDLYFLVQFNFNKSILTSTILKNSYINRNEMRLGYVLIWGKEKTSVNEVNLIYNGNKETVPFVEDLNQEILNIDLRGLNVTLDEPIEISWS

The molecule `OC[C@H]1O[C@H](O[C@H]2[C@H](O)[C@@H](O)C(O)O[C@@H]2CO)[C@H](O)[C@@H](O)[C@@H]1O` (mixture of isomers) [Maltose, reference compound] displayed a GM conversion rate in test [1] (setting [7]) of 95.7%. Further, the Michaelis constant (Km) in test [2] (GM/maltose basic kinetics, substrate, mean, 37° C., pH 7.0) is 4.2 ± 1 mM. Further, the Vmax in test [2] (GM/maltose basic kinetics, enzyme solution with maltase activity of 5 U/mL) was 4.8 ± 0.7 U/mL. Moreover, the SI conversion rate on sucrase/isomaltase (SI) [3] (setting [7]) was 100%.
Consider `N[C@H]1[C@H](O)[C@@H](CO)O[C@@]1(CO)O[C@H]1O[C@H](CO)[C@@H](O)[C@H](O)[C@H]1O` [3′-aminosucrose], for which the KM/Ki amounted to 8.2 on sucrase/isomaltase (SI) [4], 11530 on sucrase/isomaltase (SI) [5] (SI/sucrose), 2113 at sucrase/isomaltase (SI) [6] (SI/maltose) and 3.1 in test [2]. Moreover, the “Type (of inhibition)” value on sucrase/isomaltase (SI) [4] is “K”. Moreover, the “inhibitor strength (in words)” value at sucrase/isomaltase (SI) [4] was “strong to very strong”; on sucrase/isomaltase (SI) [5] (SI/sucrose), “to a high percentage even at very low concentrations; also recorded: strong to very strong”; on sucrase/isomaltase (SI) [6] (SI/maltose), “to a high percentage even at very low concentrations; also recorded: strong to very strong”; in test [2], “to a high percentage even at very low concentrations; also recorded: strong to very strong”. The enzymatic activity result is “no longer measurable” on sucrase/isomaltase (SI) [5] (SI/sucrose, inhibitor concentration of 1 mmol/L) and “no longer measurable” on sucrase/isomaltase (SI) [6] (SI/maltose, inhibitor concentration of 1 mmol/L). The Ki at sucrase/isomaltase (SI) [5] (SI/sucrose, with preincubation, Dixon evaluation, read-out: Ki) came out at 0.0065 mM; on sucrase/isomaltase (SI) [5] (SI/sucrose, with preincubation, Henderson evaluation, read-out: Ki), 0.0063 mM; on sucrase/isomaltase (SI) [5] (SI/sucrose, without preincubation, Dixon evaluation, read-out: Ki) it was 0.0052 mM; on sucrase/isomaltase (SI) [5] (SI/sucrose, without preincubation, Henderson evaluation, read-out: Ki) it was 0.005 mM; on sucrase/isomaltase (SI) [6] (SI/maltose, with preincubation, Dixon evaluation, read-out: Ki), 0.0046 mM; on sucrase/isomaltase (SI) [6] (SI/maltose, with preincubation, Henderson evaluation, read-out: Ki), 0.0046 mM. Also, the Ki on sucrase/isomaltase (SI) [6] (SI/maltose, without preincubation, Dixon evaluation, read-out: Ki) came to 0.0054 mM; at sucrase/isomaltase (SI) [6] (SI/maltose, without preincubation, Henderson evaluation, read-out: Ki), 0.0052 mM; in test [2] (read-out: Ki) it was 1 mM; in test [2] (read-out: Kii) it was 17 mM. Further, the sucrose hydrolysis inhibited entry at sucrase/isomaltase (SI) [5] (concentration of 5 μmol/mL) is “about 30%”. This molecule yielded a GM conversion rate in test [1] (setting [8]) of 0%. Moreover, the maltose hydrolysis inhibited entry at sucrase/isomaltase (SI) [6] (concentration of 5 μmol/mL) is “about 50%”. Also, on sucrase/isomaltase (SI) [3] (setting [8]), the SI conversion rate worked out at 0%.
As to `O=C(O)C1OC(OCC2OC(O)(CO)C(O)C2O)C(O)C(O)C1O` (centres unmarked) [Pal-C6′S, palatinose-C6′-acid], the KM/Ki on sucrase/isomaltase (SI) [4] worked out at 3.7; at sucrase/isomaltase (SI) [5] (SI/sucrose) it was 8.4; at sucrase/isomaltase (SI) [6] (SI/maltose), 0.7; in test [2], 0.22. Further, at sucrase/isomaltase (SI) [4], the “Type (of inhibition)” value was “K”. In addition, the “inhibitor strength (in words)” value on sucrase/isomaltase (SI) [4] is “strong to very strong”; at sucrase/isomaltase (SI) [5] (SI/sucrose), “strong to very strong”; at sucrase/isomaltase (SI) [6] (SI/maltose) it was “inhibitory action”; in test [2], “inhibitory action”. In addition, the Ki on sucrase/isomaltase (SI) [5] (setting [9]) turned out to be 7 mM; on sucrase/isomaltase (SI) [5] (setting [10]), 8 mM; at sucrase/isomaltase (SI) [6] (setting [11]), 16 mM; on sucrase/isomaltase (SI) [6] (setting [12]), 31 mM; in test [2] (read-out: Ki), 20 mM. In test [1] (setting [8]), this molecule showed a GM conversion rate of 0.1%. Besides, the SI conversion rate on sucrase/isomaltase (SI) [3] (setting [8]) is reported as 0.4%.
For `OC[C@H]1O[C@@](CO)(O[C@H]2O[C@H](CO)[C@@H](O)[C@H](O)[C@H]2O)[C@@H](O)[C@@H]1O` [Sucrose, reference compound], the SI conversion rate is 87% on sucrase/isomaltase (SI) [3] (setting [8]) and 85% on sucrase/isomaltase (SI) [3] (setting [7]).
`OC[C@H]1O[C@H](OC[C@H]2OC(O)[C@H](O)[C@@H](O)[C@@H]2O)[C@H](O)[C@@H](O)[C@@H]1O` (some centres unmarked) [isomaltose, reference compound]: the Km on sucrase/isomaltase (SI) [4] (SI/isomaltose basic kinetics, substrate, mean, 37° C., pH 7.0) came out at 73.9 ± 6.8 mM. Further, at sucrase/isomaltase (SI) [4] (SI/isomaltose basic kinetics, enzyme solution with maltase activity of 5 U/mL), the Vmax came to 3.07 ± 0.18 U/mL.
In the case of sucrose-C6-acid [Suc-C6S], the KM/Ki at sucrase/isomaltase (SI) [4] is recorded as 1; on sucrase/isomaltase (SI) [5] (SI/sucrose), 6.2; on sucrase/isomaltase (SI) [6] (SI/maltose), 0.26. Further, the “Type (of inhibition)” value at sucrase/isomaltase (SI) [4] is recorded as “NK”. In addition, the “inhibitor strength (in words)” value at sucrase/isomaltase (SI) [4] is listed as “strong to very strong”; at sucrase/isomaltase (SI) [5] (SI/sucrose), “strong to very strong”; on sucrase/isomaltase (SI) [6] (SI/maltose) it was “inhibitory action”. Moreover, the Ki stood at 73 mM on sucrase/isomaltase (SI) [4] (read-out: Ki); 3 mM on sucrase/isomaltase (SI) [4] (read-out: Kii); 9 mM at sucrase/isomaltase (SI) [5] (setting [9]); 9 mM at sucrase/isomaltase (SI) [5] (setting [10]); 43 mM on sucrase/isomaltase (SI) [6] (setting [11]); 5 mM on sucrase/isomaltase (SI) [6] (setting [12]). Also, the Ki in test [2] (read-out: Kii) came out at 4 mM. This molecule also yielded a GM conversion rate in test [1] (setting [7]) of 0%. For the same molecule, the SI conversion rate on sucrase/isomaltase (SI) [3] (setting [7]) is 2%.
